# In patent US9550792B2, “Polycyclic substituted pyrazole kinase activity inhibitors and use thereof” (priority 2013, dated 2017):
# Like-named read-outs stand apart in the source and are kept apart here.
# Tests used:
# [1] = system: umbilical cord vein endothelium cell line HUVEC; assay: Anti-tumor activity in vitro, MTT method; conditions: Homo sapiens, 48 h, read-out: HUVEC (IC50/μM)
# Protocol: (§2) MTT method: the dehydrogenase associated with NADP in the mitochondria of living cell is capable of reducing exogenous MTT into insoluble bluish violet crystal (Formazan), which is precipitated in the cell. […] DMSO or Triple liquid (10% SDS-5% isobutanol-0.01 mol/L HCl) is used to dissolve the crystal in the cell. The OD determined at 570 nm by a microplate reader can reflect the amount of the living cell indirectly.
# (§3) The crystal is dissolved with DMSO and the detection is performed on a microplate reader.
# leukemia cell line NB4 = assay: Anti-tumor activity in vitro, MTT method; conditions: 48 h, read-out: NB4 (IC50/μM)
# Protocol: as §2, §3
# [2] = system: resistant breast cancer cell line MCF-7; assay: Anti-tumor activity in vitro, MTT method; conditions: Homo sapiens, MCF7, 48 h, read-out: Resistant MCF7 (IC50/μM)
# Protocol: as §2, §3
# Aurora A = molecular target: T1, Aurora A (Homo sapiens, UniProt O14965); assay: Inhibitory activity to Aurora A (FRET); type: biochemical; conditions: read-out: Aurora A inhibition % (1 × 10^−6 mol/L)
# T1 construct: purchased
# T1 sequence (O14965 1-403): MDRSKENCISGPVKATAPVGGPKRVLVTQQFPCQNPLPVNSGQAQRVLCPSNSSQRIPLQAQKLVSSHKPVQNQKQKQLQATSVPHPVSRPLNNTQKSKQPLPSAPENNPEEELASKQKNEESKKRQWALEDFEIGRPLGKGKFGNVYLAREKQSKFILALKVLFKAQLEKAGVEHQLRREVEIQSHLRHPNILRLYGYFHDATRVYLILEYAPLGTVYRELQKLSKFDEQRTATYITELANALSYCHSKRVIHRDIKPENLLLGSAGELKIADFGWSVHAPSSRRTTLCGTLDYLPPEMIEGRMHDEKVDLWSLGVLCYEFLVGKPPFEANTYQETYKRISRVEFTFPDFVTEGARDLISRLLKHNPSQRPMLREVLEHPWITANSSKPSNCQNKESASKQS
# Protocol: The inhibitory activities of the synthesized compounds for Aurora A is determined by fluorescence resonance energy transfer (FRET) and were compared with the positive control drug so as to screen the compounds with better activities. Aurora A was purchased in the form of a kit or obtained through purification. Procedures: Aurora A is diluted to a suitable concentration with kinase diluent. The kinase reaction mixture contains Aurora A, peptide substrate, HEPES (pH7.5), BRIJ-35, MgCl2 and EDTA. Aurora A phospho-peptide substrate is used as the control of 100% phosphorylation and ATP-free as the control of 0% phosphorylation. After 1 h, the diluted Development Reagent A is added into the reaction system. Then the reaction is allowed to proceed for 1 h and then quenched with Stop Reagent. The excitation wavelength is 400 nm and the fluorescence intensity is detected at 445 nm (coumarin) and 520 nm (fluorescein). The inhibitions of the tested compounds are calculated according to the formula.
# [3] = system: liver cancer cell line HEPG2; assay: Anti-tumor activity in vitro, MTT method; conditions: Homo sapiens, HepG2, 48 h, read-out: HEPG2 (IC50/μM)
# Protocol: as §2, §3
# lung cancer cell H1299 = assay: Anti-tumor activity in vitro, MTT method; type: cell-based; conditions: Homo sapiens, read-out: H1299 (IC50/μM)
# [4] = system: stomach cancer cell line MGC803; assay: Anti-tumor activity in vitro, MTT method; conditions: Homo sapiens, MGC-803, 48 h, read-out: MGC803 (IC50/μM)
# Protocol: as §2, §3
# [5] = system: liver cancer cell line 7721; assay: Anti-tumor activity in vitro, MTT method; type: cell-based; conditions: 48 h, read-out: 7721 (IC50/μM)
# [6] = system: colon cancer cell line HCT116; assay: Anti-tumor activity in vitro, MTT method; type: cell-based; conditions: Homo sapiens
# S180 grafting tumor = assay: Inhibition to S180 grafting tumor in animal; type: in vivo, ICR mouse; conditions: 15 mg/kg intravenously once a day, 7 administrations
# Protocol: ICR mouse was inoculated with solid tumor according to tumor grafting process (tumor piece was weighed under sterile condition, homogenized with glass tissue homogenizer, placed within a sterile container, to which was added physiological saline to prepare 1:3 cell suspension. The container was placed on ice and aspirated and the cells were mixed homogeneously before each aspiration. Each mouse was inoculated subcutaneously 0.2 mL at right fore axilla). […] The mice were administered intravenously, once a day and 7 administrations in total. The administration volume was 0.4 ml/20 g. The mice bearing tumor were sacrificed 8 days after inoculation (d8). The tumor tissue was separated and weighed. The data was analyzed with statistics method (t-test).
# Dose setting: 5 groups in total.
# [7] = system: breast cancer cell line MDA231; assay: Anti-tumor activity in vitro, MTT method; conditions: Homo sapiens, MDA-MB-231, 48 h, read-out: MDA231 (IC50/μM)
# Protocol: as §2, §3
# [8] = system: stomach cancer cell line BSG823; assay: Anti-tumor activity in vitro, MTT method; conditions: 48 h, read-out: BSG823 (IC50/μM)
# Protocol: as §2, §3
# [9] = system: lung cancer cell line A549; assay: Anti-tumor activity in vitro, MTT method; conditions: Homo sapiens, A549, 48 h, read-out: A549 (IC50/μM)
# Protocol: as §2, §3
# [10] = system: breast cancer cell line MCF-7; assay: Anti-tumor activity in vitro, MTT method; conditions: Homo sapiens, MCF7, 48 h, read-out: MCF7 (IC50/μM)
# Protocol: as §2, §3
# leukemia cell line K562 = assay: Anti-tumor activity in vitro, MTT method; conditions: Homo sapiens, K562, 48 h, read-out: K562 (IC50/μM)
# Protocol: as §2, §3
# CDK2/A = molecular target: T2, CDK2/A (Homo sapiens, UniProt P24941); assay: Inhibitory activity to CDK2 (FRET); type: biochemical; conditions: read-out: CDK2 inhibition % (1 × 10^−6 mol/L)
# T2 construct: purchased
# Protocol: CDK2/A was purchased in the form of a kit or obtained through purification.
# Procedures: CDK2/A is diluted to a suitable concentration with kinase diluent. The kinase reaction mixture contains CDK2/A, peptide substrate, HEPES (pH7.5), BRIJ-35, MgCl2 and EDTA. CDK2 phospho-peptide substrate is used as the control of 100% phosphorylation and ATP-free as the control of 0% phosphorylation. After 1 h, the diluted Development Reagent A is added into the reaction system. Then the reaction is allowed to proceed for 1 h and then quenched with Stop Reagent. […] The inhibitions of the tested compounds are calculated according to the formula.
# Candida parapsilosis = assay: Antifungal activity, modified broth microdilution; type: cell-based; conditions: Lodderomyces parapsilosis; 48 hours at 35, approximately 50% reduction of growth
# Protocol: (§1) The test microorganisms are maintained on Sabourahd Dextrose Agar slant at 4[…]. Singlet suspension of each microorganism is prepared by growing the yeast overnight at 27[…] on a rotating drum in yeast-nitrogen base broth (YNB) with amino acids (Difco, Detroit, Mich.), (pH 7.0) and 0.05 morpholine propanesulphonic acid (MOPS). […] The activity of the test compound is determined using a modified broth microdilution technique. […] Well 12 serves as a growth control. […] Inoculated plate is incubated for 48 hours at 35 °C. […] Minimal Cytolytic Concentration (MCC) is determined by subculturing all wells from the 96-well plate onto a Sabourahd Dextrose Agar (SDA) plate, incubating for 1-2 days at 35 °C, and then checking viability.
# Cryptococcus neoformans = assay: Antifungal activity, modified broth microdilution; type: cell-based; conditions: Cryptococcus neoformans; 48 hours at 35, approximately 50% reduction of growth
# Protocol: as §1
# [11] = system: Candida albicans - ATCC 36082; assay: Antifungal activity, modified broth microdilution; type: cell-based; conditions: Candida albicans, ATCC36082; 48 hours at 35, approximately 50% reduction of growth
# Protocol: as §1
# Candida tropicalis = assay: Antifungal activity, modified broth microdilution; type: cell-based; conditions: Candida tropicalis; 48 hours at 35, approximately 50% reduction of growth
# Protocol: as §1
# Phytophthora infestans = type: in vivo
# [12] = HCT-116, 48 h, read-out: HCT-116 (IC50/μM)
# [13] = HCT-116, MTT, 48 h, first cell table, read-out: HCT-116 (IC50/μM)
SMILES,inhibition at 1 µM (Aurora A) [%],"IC50 (lung cancer cell H1299; NCI-H1299, 48 h) [µM]",IC50 [5] [µM],"IC50 [6, 12] [µM]","IC50 (lung cancer cell H1299; NCI-H1299, MTT, 48 h) [µM]",IC50 ([5]; MTT) [µM],"IC50 [6, 13] [µM]",melting point [°C],inhibition at 1 µM (CDK2/A) [%],other results
"O=C(NC1CCNCC1)c1n[nH]cc1NC(=O)c1c(Cl)cccc1Cl [AT-7519, reference compound]",38,9.32,> 200,21.2,,,,,,"IC50 [1]: 5.67 µM; IC50 (leukemia cell line NB4): 0.62 µM; IC50 [2]: 22.1 µM; IC50 [3]: 53.6 µM; IC50 [4]: 1.93 µM; IC50 ([6]; HCT-116, 48 h, read-out: HCT116 (IC50/μM)): 2.63 µM; Body weight After administration (S180 grafting tumor): 23.83 ± 3.39 g; Tumor inhibition (S180 grafting tumor; d8): 32.45%; Tumor weight (S180 grafting tumor; d8): 0.80 ± 0.27 g; IC50 [7]: 2.58 µM; IC50 [8]: 16.7 µM; IC50 [9]: 53.5 µM; IC50 [10]: 2.04 µM; IC50 (leukemia cell line K562): 3.24 µM"
"O=C(Nc1ccc(CN2CCOCC2)cc1)c1n[nH]cc1Nc1ncnc2occc12 [Compound I-22, 4-(4-furo[2,3-d]pyrimidinylamino)-N-(4-((4-morpholinyl)methyl)phenyl)-1H-3-pyrazolecarboxamide]",48.5,,,,10.3,18.1,8.63,> 280,66.3,
"CN1CCN(Cc2ccc(NC(=O)c3n[nH]cc3Nc3ccnc4ccoc34)cc2)CC1 [Compound I-39, 4-(7-furo[3,2-b]pyridylamino)-N-(4-((4-methyl-1-piperazinyl)methyl)phenyl)-1H-3-pyrazolecarboxamide]",42.1,,,,> 200,> 200,> 200,268 to 270,37.6,
"CN1CCN(Cc2ccc(NC(=O)c3n[nH]cc3Nc3nccc4ccsc34)cc2)CC1 [Compound I-29, 4-(7-thieno[2,3-c]pyridylamino)-N-(4-((4-methyl-1-piperazinyl)methyl)phenyl)-1H-3-pyrazolecarboxamide]",64.4,3.84,4.95,0.26,,,,274 to 276,76.2,MIC (Candida parapsilosis): 6.47 mg/L; MIC (Cryptococcus neoformans): 7.81 mg/L; MIC [11]: 2.73 mg/L; MIC (Candida tropicalis): 4.21 mg/L; Severity of tomato leaf blight (Phytophthora infestans; 0.0001 (unit not given)): +++ (40-60% blight); Severity of tomato leaf blight (Phytophthora infestans; 0.001 (unit not given)): ++ (15-40% blight); Severity of tomato leaf blight (Phytophthora infestans; 0.01 (unit not given)): + (0-15% blight); Severity of tomato leaf blight (Phytophthora infestans; 0.1 (unit not given)): −
